Paper PMC6271978, “1H-2,3-Dihydroperimidine Derivatives: A New Class of Potent Protein Tyrosine Phosphatase 1B Inhibitors” (Molecules, 2013)

What was measured:
PTP1B (GST-PTP1B) = target: T1, PTP1B (GST-PTP1B) (Homo sapiens, UniProt P18031); assay: PTP1B inhibition, colorimetric pNPP assay; format: biochemical; settings: for inhibition at 20 µg/mL: PTP1B, compound at 20 μg/mL; for inhibition at 20 µg/mL / IC50: pNPP substrate; for IC50: means ± SD of three replications, OA/PC = oleanolic acid positive control; for PTP1B inhibitory activity (in words): pNPP assay, tested at 20 μg/mL
T1 sequence (P18031 1-435): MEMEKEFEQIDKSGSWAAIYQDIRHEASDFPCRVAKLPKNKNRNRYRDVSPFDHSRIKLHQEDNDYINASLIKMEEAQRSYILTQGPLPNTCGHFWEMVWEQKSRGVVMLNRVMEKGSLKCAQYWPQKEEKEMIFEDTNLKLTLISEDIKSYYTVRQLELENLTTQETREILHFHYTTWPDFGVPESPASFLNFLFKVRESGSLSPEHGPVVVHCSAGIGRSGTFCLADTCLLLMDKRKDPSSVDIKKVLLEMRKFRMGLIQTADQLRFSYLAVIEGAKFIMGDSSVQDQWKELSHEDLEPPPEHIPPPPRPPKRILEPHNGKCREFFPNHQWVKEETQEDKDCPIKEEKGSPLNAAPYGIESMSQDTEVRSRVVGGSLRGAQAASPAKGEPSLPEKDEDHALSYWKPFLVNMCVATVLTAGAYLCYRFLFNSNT

Row | Compound | inhibition at 20 µg/mL (PTP1B (GST-PTP1B)) | melting point | IC50 (PTP1B (GST-PTP1B)) | PTP1B inhibitory activity (in words) (PTP1B (GST-PTP1B))
1 | Brc1cccc(C2Nc3cccc4cccc(c34)N2)c1 [Compound 3, 2-(3-Bromophenyl)-2,3-dihydro-1H-perimidine] | 42.5% | 161.7 to 163.3 °C | – | –
2 | O=C(O)CCCNC(=O)c1ccc(C2Nc3cccc4cccc(c34)N2)nc1 [Compound 47, 4-[6-(2,3-Dihydro-1H-perimidin-2-yl)nicotinamido]butanoic acid] | 98.5% | 95.3 to 99 °C | 15.2 ± 1.41 µM | –
3 | COC(=O)C1CCCN1C(=O)c1ccc(C2Nc3cccc4cccc(c34)N2)cc1 (stereo not shown) [Compound 10, Methyl 1-(4-(2,3-dihydro-1H-perimidin-2-yl)benzoyl)pyrrolidine-2-carboxylate] | 26.2% | 171.3 to 176 °C | – | –
4 | Brc1ccc(C2Nc3cccc4cccc(c34)N2)cc1 [Compound 2] | 37% | – | – | –
5 | O=C(O)CCCCNC(=O)c1ccc(C2Nc3cccc4cccc(c34)N2)cc1 [Compound 18, 5-(4-(2,3-Dihydro-1H-perimidin-2-yl)benzamido)pentanoic acid] | 94.8% | 102.8 to 107.4 °C | 5.53 ± 0.54 µM | –
6 | CC(C)(C)OC(=O)NCCC(=O)Nc1ccc(C2Nc3cccc4cccc(c34)N2)cc1 [Compound 34] | 12.6% | 111.1 to 113.7 °C | – | no inhibitory activity
7 | COC(=O)CNC(=O)c1ccc(C2Nc3cccc4cccc(c34)N2)nc1 [Compound 42] | 42.1% | 183.6 to 184.7 °C | – | –
8 | COC(=O)c1ccc(C2Nc3cccc4cccc(c34)N2)nc1 [Compound 40] | 6.4% | – | – | –
9 | COC(=O)c1ccc(C2Nc3cccc4cccc(c34)N2)cc1 [Compound 9] | 15.3% | – | – | –
10 | CCOC(=O)CCCOc1ccc(C2Nc3cccc4cccc(c34)N2)cc1 [Compound 21] | 7.45% | 76.2 to 78.6 °C | – | did not show inhibitory activity
11 | O=C(O)CCCCOc1ccc(C2Nc3cccc4cccc(c34)N2)cc1 [Compound 25, 5-[4-(2,3-Dihydro-1H-perimidin-2-yl)phenoxy]pentanoic acid] | 32.1% | 165.9 to 167.8 °C | – | no inhibitory activity
12 | O=C(O)CCCNC(=O)c1ccc(C2Nc3cccc4cccc(c34)N2)cc1 [Compound 17, 4-(4-(2,3-Dihydro-1H-perimidin-2-yl)benzamido)butanoic acid] | 73.1% | 99.7 to 103.3 °C | 22.2 ± 1.6 µM | –
13 | O=C(O)CCCC(=O)Nc1ccc(C2Nc3cccc4cccc(c34)N2)cc1 [Compound 33, 5-{[4-(2,3-Dihydro-1H-perimidin-2-yl)phenyl]amino}-5-oxopentanoic acid] | 95.1% | > 265 °C | 6.91 ± 1.17 µM | –
14 | CCOC(=O)CCC(=O)Nc1ccc(C2Nc3cccc4cccc(c34)N2)cc1 [Compound 28] | 29.7% | 165.8 to 170.9 °C | – | –
15 | Oc1ccc(C2Nc3cccc4cccc(c34)N2)cc1 [Compound 5, 4-(2,3-Dihydro-1H-perimidin-2-yl)phenol] | 7.18% | – | – | –
16 | O=C(O)COc1ccc(C2Nc3cccc4cccc(c34)N2)cc1 [Compound 23, 2-[4-(2,3-Dihydro-1H-perimidin-2-yl)phenoxy]acetic acid] | 98.4% | > 265 °C | 5.88 ± 0.25 µM | –
17 | O=C(O)CC(=O)Nc1ccc(C2Nc3cccc4cccc(c34)N2)cc1 [Compound 31, 3-{[4-(2,3-Dihydro-1H-perimidin-2-yl)phenyl]amino}-3-oxopropanoic acid] | 96.8% | 221.3 to 223.4 °C | 6.45 ± 0.42 µM | –
18 | COC(=O)CNC(=O)c1ccc(C2Nc3cccc4cccc(c34)N2)cc1 [Compound 11] | 4.81% | 193.3 to 198.7 °C | – | –
19 | Brc1ccccc1C1Nc2cccc3cccc(c23)N1 [Compound 4, 2-(2-Bromophenyl)-2,3-dihydro-1H-perimidine] | 17.5% | – | – | –
20 | O=C(O)c1ccc(C2Nc3cccc4cccc(c34)N2)nc1 [Compound 41] | 96.6% | 100.7 to 101.3 °C | 10.8 ± 0.69 µM | –

Row | Compound | inhibition at 20 µg/mL (PTP1B (GST-PTP1B)) | melting point | IC50 (PTP1B (GST-PTP1B)) | PTP1B inhibitory activity (in words) (PTP1B (GST-PTP1B))
21 | CCOC(=O)CCCNC(=O)c1ccc(C2Nc3cccc4cccc(c34)N2)cc1 [Compound 12, Ethyl 4-(4-(2,3-dihydro-1H-perimidin-2-yl)benzamido)butanoate] | 6.83% | 128.6 to 132.5 °C | – | –
22 | O=C(O)CCC(=O)Nc1ccc(C2Nc3cccc4cccc(c34)N2)cc1 [Compound 32] | 29.9% | – | – | no activity
23 | O=C(O)CCCCCNC(=O)c1ccc(C2Nc3cccc4cccc(c34)N2)cc1 [Compound 19, 6-(4-(2,3-Dihydro-1H-perimidin-2-yl)benzamido)hexanoic acid] | 95.3% | 90.8 to 91.9 °C | 7.82 ± 0.27 µM | –
24 | CCOC(=O)CCCCOc1ccc(C2Nc3cccc4cccc(c34)N2)cc1 [Compound 22, Ethyl 5-[4-(2,3-dihydro-1H-perimidin-2-yl)phenoxy]pentanoate] | 2.04% | 93.8 to 96.4 °C | – | did not show inhibitory activity
25 | CCOC(=O)C(=O)Nc1ccc(C2Nc3cccc4cccc(c34)N2)cc1 [Compound 26, Ethyl 2-{[4-(2,3-dihydro-1H-perimidin-2-yl)phenyl]amino}-2-oxoacetate] | 91.8% | 132.3 to 135.5 °C | 1.27 ± 0.06 µM | –
26 | O=C(O)C1CCCN1C(=O)c1ccc(C2Nc3cccc4cccc(c34)N2)cc1 (stereo not shown) [Compound 15, 1-(4-(2,3-Dihydro-1H-perimidin-2-yl)benzoyl)pyrrolidine-2-carboxylic acid] | 84.2% | 233.1 to 234.3 °C | 20.2 ± 1.94 µM | –
27 | N#Cc1cc(C2Nc3cccc4cccc(c34)N2)ccc1F [Compound 6, 5-(2,3-Dihydro-1H-perimidin-2-yl)-2-fluorobenzonitrile] | 31.6% | 204.4 to 208.4 °C | – | –
28 | O=C(O)C(=O)Nc1ccc(C2Nc3cccc4cccc(c34)N2)cc1 [Compound 30, 2-{[4-(2,3-Dihydro-1H-perimidin-2-yl)phenyl]amino}-2-oxoacetic acid] | 0.51% | > 265 °C | – | no activity
29 | CCOC(=O)CCCCCNC(=O)c1ccc(C2Nc3cccc4cccc(c34)N2)cc1 [Compound 14, Ethyl 6-(4-(2,3-dihydro-1H-perimidin-2-yl)benzamido)hexanoate] | 35.6% | 145.8 to 147.4 °C | – | –
30 | NCCC(=O)Nc1ccc(C2Nc3cccc4cccc(c34)N2)cc1 [Compound 35] | 0.29% | 239.7 to 241.2 °C | – | no inhibitory activity
31 | CCOC(=O)CCCCNC(=O)c1ccc(C2Nc3cccc4cccc(c34)N2)cc1 [Compound 13, Ethyl 5-(4-(2,3-dihydro-1H-perimidin-2-yl)benzamido)pentanoate] | 28.5% | 141.8 to 143.1 °C | – | –
32 | CCOC(=O)CCCC(=O)Nc1ccc(C2Nc3cccc4cccc(c34)N2)cc1 [Compound 29, Ethyl 5-{[4-(2,3-dihydro-1H-perimidin-2-yl]phenyl)amino}-5-oxopentanoate] | 2.92% | 139.9 to 142.5 °C | – | –
33 | COC(=O)CCCNC(=O)c1ccc(C2Nc3cccc4cccc(c34)N2)nc1 [Compound 43, Methyl 4-[6-(2,3-dihydro-1H-perimidin-2-yl)nicotinamido]butanoate] | 4.67% | 100.1 to 105.4 °C | – | –
34 | O=C(O)CNC(=O)c1ccc(C2Nc3cccc4cccc(c34)N2)cc1 [Compound 16] | 90% | 85.4 to 90.3 °C | 27.8 ± 5.45 µM | –
35 | O=C(O)CCCOc1ccc(C2Nc3cccc4cccc(c34)N2)cc1 [Compound 24] | 10.5% | 126.3 to 130.9 °C | – | no inhibitory activity
36 | CCOC(=O)CC(=O)Nc1ccc(C2Nc3cccc4cccc(c34)N2)cc1 [Compound 27, Ethyl 3-{[4-(2,3-dihydro-1H-perimidin-2-yl)phenyl]amino}-3-oxopropanoate] | 1.68% | 158.2 to 160.7 °C | – | –
37 | CCOC(=O)CCCCNC(=O)c1ccc(C2Nc3cccc4cccc(c34)N2)nc1 [Compound 44, Ethyl 5-[6-(2,3-dihydro-1H-perimidin-2-yl)nicotinamido]pentanoate] | 4.74% | 109.4 to 113.5 °C | – | –
38 | CCOC(=O)CCCCCNC(=O)c1ccc(C2Nc3cccc4cccc(c34)N2)nc1 [Compound 45, Ethyl 6-[6-(2,3-dihydro-1H-perimidin-2-yl)nicotinamido]hexanoate] | 10.8% | 119.3 to 123.8 °C | – | –
39 | Nc1ccc(C2Nc3cccc4cccc(c34)N2)cc1 [Compound 8] | 23.8% | 166.4 to 171.9 °C | – | –
40 | O=C(O)CCCCNC(=O)c1ccc(C2Nc3cccc4cccc(c34)N2)nc1 [Compound 48, 5-[6-(2,3-Dihydro-1H-perimidin-2-yl)nicotinamido]pentanoic acid] | 91.5% | 117.1 to 120.3 °C | 3.56 ± 0.13 µM | –
